Laboratory results taken from patent US10993976B2, “Medicament for treating uremia and proteinuria” (Shandong Zhonghai Pharmaceutical CO. LTD, priority 2016, dated 2021).

System: patient who is suffering from CRF of renal insufficiency at decompensation stage
Test: Clinical application of the medicament in treating uremia and proteinuria (Embodiment 7 test method)
Assay type: in vivo, human
Text: Patient selection: choose the patient who is suffering from CRF of renal insufficiency at decompensation stage (The content of SCr is within the range of 186-442 umol/L) to study. The primary disease is chronic glomerulonephritis (CGN) and nephrotic syndrome (NS), except CRF caused by renal arteriosclerosis, diabetic nephropathy and renal cysts.
These investigated patients were randomly divided into groups, 50 patients in each group, aged 19-66 years (mean 44.6±12.6 years), with a course of disease 12-46 months (mean 22.6±8.6 months).
Treatment group 1-6: The patients in embodiment 1-6 received the medicament mentioned of the invention, with a dose of 3 g/day, three times a day.
Control group: The patients received the oral administration of coated aldehyde oxystarch 5 g-10 g, twice a day.
All groups were treated with 1 month as a course of treatment.
The patients stopped using Chinese and western medicine 2 weeks before treatment. […] They were given high quality low protein, low phosphorus and high calorie diet, correction of water and electrolyte disorders and acidosis, and anti-infection, in order to remove those reversible factors that may cause temporary renal dysfunction. Lotensin 5-20 mg was given to the patients with hypertension, once a day, or/and nifedipine 10-20 mg, three or four times a day.
X2 test was used for enumeration data and t test was used for measurement data. […]

[1] = 50 patients per group, after 3 courses of treatment (1 month each), medicament 3 g/day
[2] = patients, after 3 courses of treatment

For coated aldehyde oxystarch [Contrast], the “Total effective rate (%)” value (50 patients per group, after 3 courses of treatment) was 64%, the “Effective (case)” value [1] was 22 case and the “Ineffective (case)” value [1] was 18 case. The “Markedly effective (case)” value [1] was 10 case, the “Blood coagulation factor I” value (Fib, patients, after 3 courses of treatment) was 3.88 ± 0.48 g/L and the Hb (hemoglobin, patients, after 3 courses of treatment) was 82.4 ± 9.5 g/L. For the same substance, the Urine protein (patients, 24 h urine protein, after 3 courses of treatment) was 2.78 ± 1.59 g/24 h, the Blood usea nitrogen [2] was 16.0 ± 6.4 mmol/L and the SCr [2] was 298.5 ± 76.8 µmol/L. The Whole blood viscosity [2] was 4.98 ± 1.0 and the Alb (plasma albumin, patients, after 3 courses of treatment) was 30.4 ± 3.0 g/L.
